Laboratory results reported in article PMC10501649, “A detoxification pathway initiated by a nuclear receptor TcHR96h in Tetranychus cinnabarinus (Boisduval)” (PLOS Genetics, 2023).
Where two headings read alike, the source gives them in different places.

Assays:
[1] = target: TcHR96h (nuclear hormone receptor HR96h); assay: microscale thermophoresis (MST), supported by DARTs; R448A mutation reduces affinity […]; assay type: binding, Tetranychus cinnabarinus
[2] = target: TcHR96h (nuclear hormone receptor HR96h); assay: as above; assay type: binding, Tetranychus cinnabarinus; remark: listed apart in the source

| Compound | Kd [1] | Kd [2] |
| --- | --- | --- |
| COCCOC(=O)C(C#N)(C(=O)c1ccccc1C(F)(F)F)c1ccc(C(C)(C)C)cc1 (centres unmarked) [cyflumetofen] | 189 µM |  |
| CC(C)(C)c1ccc(C(C#N)C(=O)c2ccccc2C(F)(F)F)cc1 (centres unmarked) [AB-1] |  | 138 µM |
